Experimental data taken from PubChem BioAssay (NCI).
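Step 1: Grow cells in 96-well plates. Step 2: Expose to compound for 48 hours at 5 concentrations. Step 3: Interpolate endpoints linearly; if unreached, use highest concentration. Here, GI50 denotes the concentration required for 50% inhibition of growth. At the TGI there is no net growth.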 Active and inactive are the calls of the source. Cut-off read from the data, not from the text of the source: active = GI50 below about 0.43 µM; inactive = the rest.

How the values were obtained:
Test in all cases: DTP human tumour cell line panel, 48 h
DMS 273 small cell lung = test system: DMS 273 small cell lung
HOP-18 NSCLC = test system: HOP-18 NSCLC
LXFL 529 NSCLC = test system: LXFL 529 NSCLC
M14 melanoma = test system: M14 melanoma
KM12 colon = test system: KM12 colon
MOLT-4 leukemia = test system: MOLT-4 leukemia
RPMI-8226 leukemia = test system: RPMI-8226 leukemia
HS 578T breast = test system: HS 578T breast
T-47D breast = test system: T-47D breast

Row | Compound | TGI (DMS 273 small cell lung) | TGI (HOP-18 NSCLC) [µM] | TGI (LXFL 529 NSCLC) [µM] | TGI (M14 melanoma) | TGI (KM12 colon) [µM] | TGI (MOLT-4 leukemia) | TGI (RPMI-8226 leukemia) | TGI (HS 578T breast) [µM] | GI50 (KM12 colon) [µM] | TGI (T-47D breast) [µM] | GI50 (DMS 273 small cell lung) | GI50 (HOP-18 NSCLC) [µM] | GI50 (LXFL 529 NSCLC) [µM] | GI50 (M14 melanoma) | GI50 (MOLT-4 leukemia) | GI50 (RPMI-8226 leukemia) | outcome (LXFL 529 NSCLC)
1 | CCOC(=O)CCn1[nH]c(=O)c(Cl)c(Cl)c1=O | > 100 µM | > 100 | > 100 | > 100 µM |  |  |  |  |  |  |  |  |  |  |  |  | 
2 | FC(F)(F)c1nc(-c2ccccc2)oc1Sc1nnc(Sc2oc(-c3ccccc3)nc2C(F)(F)F)s1 | > 100 µM | > 100 | > 64.6 | 28 µM | > 100 | 17 µM | > 74.6 µM |  |  |  |  |  |  |  |  |  | 
3 | Cc1nc2ccccc2c(=O)n1-c1ccccc1F | > 100 µM | > 100 | > 100 | > 100 µM | > 100 | > 100 µM |  |  |  |  |  |  |  |  |  |  | 
4 | CN(C)C(c1ccccc1)C(O)c1ccccc1 (stereo not drawn) | > 100 µM | > 100 | > 100 | > 100 µM | > 100 | > 100 µM | > 100 µM |  |  |  |  |  |  |  |  |  | 
5 | COc1ccc2c3c(coc13)C(CCC(=O)O)CC2 (stereo not drawn) | > 100 µM | > 100 | > 100 | > 100 µM |  |  |  |  |  |  |  |  |  |  |  |  | 
6 | CC(C)N1CN(C(C(=O)N[C@@H]2C(=O)N3C2SC(C)(C)C3C(=O)O)c2ccccc2)CSC1=S (stereo partly drawn) | > 100 µM | > 100 | > 100 | > 100 µM | > 100 | > 100 µM | > 100 µM |  |  |  |  |  |  |  |  |  | 
7 | CCc1ccc(Nc2ccc([N+](=O)[O-])cc2[N+](=O)[O-])cc1 | > 100 µM |  | > 100 | > 100 µM | > 100 | > 100 µM | > 100 µM |  |  |  |  |  |  |  |  |  | 
8 | N#CCc1ccc(C(C#N)/C(CCCC(=O)Nc2cccc([N+](=O)[O-])c2)=N/NC(N)=S)cc1 (stereo not drawn) | > 100 µM | > 100 | > 100 | > 100 µM | > 100 | > 100 µM | > 100 µM |  |  |  |  |  |  |  |  |  | 
9 | CCOc1ccc2c(c1)[n+]([O-])c(-c1nc3ccccc3s1)c(N)[n+]2[O-] | > 100 µM | 92.1 | > 100 | > 100 µM | > 100 | > 100 µM | > 100 µM |  |  |  |  |  |  |  |  |  | 
10 | c1cc2c(ncc3cscc32)s1 | > 100 µM |  | > 100 | > 100 µM | > 100 | > 100 µM | > 100 µM | > 100 |  |  |  |  |  |  |  |  | 
11 | COc1ccc(/C=C\c2cc(OC)c(OC)c(OC)c2)cc1OC(=O)NCCN(C)C | 0.000109 µM | > 100 |  | > 35 µM |  | < 0.0494 µM |  |  | < 0.0001 |  |  |  |  |  |  |  | 
12 | OC/C=C(\I)CCCOCOCc1ccccc1 | 44.4 µM |  | > 100 | > 100 µM | > 100 | 13.1 µM | 47.5 µM |  |  |  |  |  |  |  |  |  | 
13 | Cc1ccc2c(c1)CN(C(=O)CCC(=O)OCc1ccccc1)c1ccc(C)cc1CN2C(=O)CCC(=O)OCc1ccccc1 | > 100 µM | > 100 | > 100 | > 100 µM | > 100 | > 100 µM | > 100 µM | > 100 |  | > 100 |  |  |  |  |  |  | 
14 | Cc1ccc(-c2cc(=O)c3cc(C)c(C)c(C(=O)O)c3o2)cc1C | > 100 µM | > 100 | > 100 | > 100 µM | > 100 | > 100 µM | > 100 µM |  |  |  |  |  |  |  |  |  | 
15 | Cc1[nH]c2ccccc2c1C1Cc2ccccc2N1C(=O)/C(Cl)=C/c1ccccc1 (stereo not drawn) | > 100 µM | > 100 | > 100 | > 100 µM | > 100 | > 100 µM | > 100 µM |  |  |  |  |  |  |  |  |  | 
16 | COC1=CC2(C=CC1=O)c1cc(OC)c(OC)cc1CCN2C(=O)c1ccccc1 (stereo not drawn) | > 100 µM | > 100 | > 100 | > 100 µM | > 100 | > 100 µM | > 100 µM |  |  |  |  |  |  |  |  |  | 
17 | COc1cc2c(c(OC)c1)C1(CC(CC#N)C2)SCCS1 (stereo not drawn) | > 100 µM | > 100 | > 100 | > 100 µM | > 100 | > 100 µM | > 100 µM |  |  |  |  |  |  |  |  |  | 
18 | Fc1ccc(C2SCc3nc4ccccc4n32)cc1Cl (stereo not drawn) |  |  | 57.8 |  | 39.8 | 69.9 µM |  |  |  |  |  |  |  |  |  |  | 
19 | N.N.O=C([O-])P(=O)([O-])[O-].[Na+].[Pt+4] | > 100 µM | > 100 | > 100 | > 100 µM | > 100 | > 100 µM | > 100 µM |  | > 100 |  | > 100 µM | > 100 | > 100 | > 100 µM | > 100 µM | > 100 µM | 
20 | Nc1ncn(C2CC(O)C(CO)O2)c(=O)n1 (stereo not drawn) |  | > 260 |  | > 375 µM | > 281 | > 375 µM | > 375 µM | 23.5 |  | > 299 |  |  |  |  |  |  | 
21 | C/C=C1/C(=C/c2[nH]c(/C=c3\[nH]/c(=C/C4=NC(=O)C(CC)=C4C)c(C)c3CCC(=O)O)c(CCC(=O)O)c2C)NC(=O)C1C (stereo not drawn) | > 150 µg/mL |  |  | > 150 µg/mL |  | > 150 µg/mL | > 150 µg/mL |  |  |  | > 150 µg/mL |  |  | > 150 µg/mL | > 150 µg/mL | > 150 µg/mL | inactive
